# Source: PubChem BioAssay (NCI)
# Values joined by “and” are separate entries in the source; they are usually repeats but may differ in a detail not shown here. Equal values may be shown once.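 1) Cells in 96-well plates. 2) Compound, 48 h, 5 concentrations. 3) Linear interpolation between surrounding doses. 4) Unreached endpoint = highest concentration. TGI marks complete inhibition of growth.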
# Assays:
# Assay in all cases: NCI-60 cell line screen, 48 h
# HOP-62 NSCLC = tested on: HOP-62 NSCLC
# CAKI-1 renal = tested on: CAKI-1 renal
# SK-OV-3 ovarian = tested on: SK-OV-3 ovarian
# NCI-H522 lung = tested on: NCI-H522 lung
# RPMI-8226 leukemia = tested on: RPMI-8226 leukemia
# T-47D breast = tested on: T-47D breast
# CCRF-CEM leukemia = tested on: CCRF-CEM leukemia
# MALME-3M melanoma = tested on: MALME-3M melanoma
# MOLT-4 leukemia = tested on: MOLT-4 leukemia
# DU-145 prostate = tested on: DU-145 prostate
# OVCAR-4 ovarian = tested on: OVCAR-4 ovarian
# OVCAR-5 ovarian = tested on: OVCAR-5 ovarian
# NCI-H460 lung = tested on: NCI-H460 lung
# SN12C renal = tested on: SN12C renal
structure (smiles),measurement,setting,value
CCCCCCC(=O)OC[n+]1ccc(-c2c(COC(=O)NC(C)C)c(COC(=O)NC(C)C)c3n2CCC3)cc1,TGI,HOP-62 NSCLC,> 100 µM
same,TGI,CAKI-1 renal,99.4 µM
same,TGI,SK-OV-3 ovarian,> 100 µM
same,TGI,NCI-H522 lung,> 100 µM
same,TGI,RPMI-8226 leukemia,98.9 µM
same,TGI,T-47D breast,> 100 µM
same,TGI,CCRF-CEM leukemia,> 88 µM
same,TGI,MALME-3M melanoma,> 100 µM
same,TGI,MOLT-4 leukemia,> 94.3 µM
same,TGI,DU-145 prostate,> 100 µM
same,TGI,OVCAR-4 ovarian,> 100 µM
same,TGI,OVCAR-5 ovarian,> 100 µM
same,TGI,NCI-H460 lung,> 100 µM
same,TGI,SN12C renal,> 100 µM
O=C(c1ccccc1)c1ccc(N2C(=O)/C(=C/c3cccc(Oc4ccccc4)c3)N=C2c2ccccc2)c(N2C(=O)/C(=C/c3cccc(Oc4ccccc4)c3)N=C2c2ccccc2)c1,TGI,HOP-62 NSCLC,> 100 µM
same,TGI,CAKI-1 renal,> 100 µM
same,TGI,SK-OV-3 ovarian,> 100 µM
same,TGI,NCI-H522 lung,51 µM
same,TGI,RPMI-8226 leukemia,96.4 µM
same,TGI,T-47D breast,> 100 µM
same,TGI,CCRF-CEM leukemia,> 100 µM
same,TGI,MALME-3M melanoma,> 100 µM
same,TGI,MOLT-4 leukemia,> 100 µM
same,TGI,DU-145 prostate,> 100 µM
same,TGI,OVCAR-4 ovarian,> 100 µM
same,TGI,OVCAR-5 ovarian,> 100 µM
same,TGI,NCI-H460 lung,80.4 µM
same,TGI,SN12C renal,> 100 µM
COc1nc(=O)[nH]c2c1C(c1ccc([N+](=O)[O-])cc1)c1c(OC)nc(=O)[nH]c1O2,TGI,HOP-62 NSCLC,> 100 µM
same,TGI,CAKI-1 renal,> 100 µM
same,TGI,SK-OV-3 ovarian,> 100 µM
same,TGI,NCI-H522 lung,> 100 µM
same,TGI,RPMI-8226 leukemia,> 100 µM
same,TGI,CCRF-CEM leukemia,> 100 µM
same,TGI,MOLT-4 leukemia,> 100 µM
same,TGI,DU-145 prostate,> 100 µM
same,TGI,OVCAR-4 ovarian,> 100 µM
same,TGI,OVCAR-5 ovarian,> 100 µM
same,TGI,NCI-H460 lung,> 100 µM
same,TGI,SN12C renal,> 100 µM
CC(C)=CCC/C(C)=C/Cc1c2c(c3oc(-c4ccc(O)c(O)c4)c(O)c(=O)c3c1O)C=CC(C)(C)O2,TGI,HOP-62 NSCLC,10.7 µM
same,TGI,CAKI-1 renal,5.55 µM
same,TGI,SK-OV-3 ovarian,8.65 µM
same,TGI,NCI-H522 lung,2.9 µM
same,TGI,RPMI-8226 leukemia,9.93 µM
same,TGI,T-47D breast,7.39 µM
same,TGI,CCRF-CEM leukemia,8.82 µM
same,TGI,MALME-3M melanoma,4.01 µM
same,TGI,MOLT-4 leukemia,8.98 µM
same,TGI,DU-145 prostate,8.59 µM
same,TGI,OVCAR-4 ovarian,9.5 µM
same,TGI,OVCAR-5 ovarian,15.1 µM
same,TGI,NCI-H460 lung,10.9 µM
same,TGI,SN12C renal,14.5 µM
O=C(O)C1=C(CO)Oc2cc3c(cc2C1c1ccc2c(c1)OCO2)OCO3 (centres undefined),TGI,HOP-62 NSCLC,> 100 µM
same,TGI,CAKI-1 renal,> 100 µM
same,TGI,SK-OV-3 ovarian,> 100 µM
same,TGI,RPMI-8226 leukemia,> 100 µM
same,TGI,CCRF-CEM leukemia,> 100 µM
same,TGI,MALME-3M melanoma,> 100 µM
same,TGI,MOLT-4 leukemia,> 100 µM
same,TGI,OVCAR-4 ovarian,> 100 µM
same,TGI,NCI-H460 lung,> 100 µM
same,TGI,SN12C renal,> 100 µM
CCCCC(CC)C(=O)Oc1ccc(C(=O)c2ccccc2)c(O)c1 (centres undefined),TGI,HOP-62 NSCLC,> 100 µM
same,TGI,CAKI-1 renal,> 100 µM
same,TGI,SK-OV-3 ovarian,> 100 µM
same,TGI,NCI-H522 lung,98.2 µM
same,TGI,RPMI-8226 leukemia,> 100 µM
same,TGI,T-47D breast,> 100 µM
same,TGI,CCRF-CEM leukemia,> 100 µM
same,TGI,MALME-3M melanoma,> 100 µM
same,TGI,MOLT-4 leukemia,> 100 µM
same,TGI,DU-145 prostate,> 100 µM
same,TGI,OVCAR-4 ovarian,> 100 µM
same,TGI,OVCAR-5 ovarian,> 100 µM
same,TGI,NCI-H460 lung,> 100 µM
same,TGI,SN12C renal,> 100 µM
CCn1c2ccccc2c2ccc(C3C4C(=O)N(c5cccc6ccccc56)C(=O)C4ON3C(C(N)=O)c3ccccc3)cc21 (centres undefined),TGI,HOP-62 NSCLC,> 25 µM
same,TGI,CAKI-1 renal,11.3 µM
same,TGI,SK-OV-3 ovarian,> 25 µM
same,TGI,NCI-H522 lung,> 25 µM
same,TGI,T-47D breast,> 25 µM
same,TGI,MALME-3M melanoma,> 25 µM
same,TGI,MOLT-4 leukemia,> 25 µM
same,TGI,DU-145 prostate,> 25 µM
same,TGI,OVCAR-4 ovarian,> 25 µM
same,TGI,OVCAR-5 ovarian,> 25 µM
same,TGI,NCI-H460 lung,> 25 µM
same,TGI,SN12C renal,> 25 µM
NC1=NC(c2ccc(Cl)cc2)=CC(c2cccc(Cl)c2)S1 (centres undefined),TGI,HOP-62 NSCLC,> 100 µM
same,TGI,CAKI-1 renal,92.5 µM
same,TGI,SK-OV-3 ovarian,> 100 µM
same,TGI,NCI-H522 lung,55.8 µM
same,TGI,RPMI-8226 leukemia,44 µM
same,TGI,T-47D breast,> 100 µM
same,TGI,CCRF-CEM leukemia,> 100 µM
same,TGI,MALME-3M melanoma,> 100 µM
same,TGI,MOLT-4 leukemia,> 100 µM
same,TGI,DU-145 prostate,> 100 µM
same,TGI,OVCAR-4 ovarian,60.5 µM
same,TGI,OVCAR-5 ovarian,> 100 µM
same,TGI,NCI-H460 lung,> 100 µM
same,TGI,SN12C renal,85.2 µM
Cc1ccc(C(=O)NC2C(=O)NC(C(C)C)C(=O)N3CCCC3C(=O)N(C)CC(=O)N(C)C(C(C)C)C(=O)OC2C)c2c1Oc1c(c(C(=O)NC3C(=O)NC(C(C)C)C(=O)N4CCCC4C(=O)N(C)CC(=O)N(C)C(C(C)C)C(=O)OC3C)c3nc(-c4ccccc4)c(=O)oc3c1C)N2 (centres undefined),TGI,HOP-62 NSCLC,0.00223 µM
same,TGI,CAKI-1 renal,> 100 µM
same,TGI,SK-OV-3 ovarian,16.1 µM
same,TGI,NCI-H522 lung,0.0342 µM
same,TGI,RPMI-8226 leukemia,0.0442 µM
same,TGI,T-47D breast,0.168 µM
same,TGI,CCRF-CEM leukemia,0.697 µM
same,TGI,MALME-3M melanoma,0.195 µM and 0.0239 µM
same,TGI,MOLT-4 leukemia,0.0314 µM
same,TGI,OVCAR-5 ovarian,0.00918 µM
same,TGI,SN12C renal,0.0442 µM and 0.312 µM
CCOC(=O)N1c2ccccc2N(C(=O)OCC)C1CC(=O)/C=C/c1ccccc1,TGI,HOP-62 NSCLC,17.6 µM
same,TGI,CAKI-1 renal,12.6 µM
same,TGI,SK-OV-3 ovarian,23 µM
same,TGI,NCI-H522 lung,6.42 µM
same,TGI,RPMI-8226 leukemia,26.6 µM
same,TGI,T-47D breast,> 100 µM
same,TGI,CCRF-CEM leukemia,4.61 µM
same,TGI,MALME-3M melanoma,18.9 µM
same,TGI,MOLT-4 leukemia,12.4 µM
same,TGI,DU-145 prostate,9.11 µM
same,TGI,OVCAR-4 ovarian,6.33 µM
same,TGI,OVCAR-5 ovarian,7.78 µM
same,TGI,NCI-H460 lung,11.1 µM
same,TGI,SN12C renal,14.4 µM
CC1CC(C)(O)C2C3(C)CCCC2(COC3=O)C12CCC1(CCOC1=O)O2 (centres undefined),TGI,HOP-62 NSCLC,> 250 µM
same,TGI,CAKI-1 renal,> 250 µM
same,TGI,SK-OV-3 ovarian,> 250 µM
same,TGI,NCI-H522 lung,> 250 µM
same,TGI,RPMI-8226 leukemia,> 250 µM
same,TGI,CCRF-CEM leukemia,> 250 µM
same,TGI,MALME-3M melanoma,> 250 µM
same,TGI,MOLT-4 leukemia,> 250 µM
same,TGI,OVCAR-4 ovarian,> 250 µM
same,TGI,OVCAR-5 ovarian,> 250 µM
same,TGI,NCI-H460 lung,> 250 µM
same,TGI,SN12C renal,> 250 µM
COC(=O)[C@]12CC[C@H]3CN(S(=O)(=O)c4ccc(C)cc4)[C@H]([C@H]31)[C@H](c1ccco1)N2S(=O)(=O)c1ccc(C)cc1,TGI,HOP-62 NSCLC,> 100 µM
same,TGI,CAKI-1 renal,> 100 µM
same,TGI,SK-OV-3 ovarian,> 100 µM
same,TGI,NCI-H522 lung,> 100 µM
same,TGI,RPMI-8226 leukemia,86.2 µM
same,TGI,T-47D breast,49.5 µM
same,TGI,CCRF-CEM leukemia,> 100 µM
same,TGI,MALME-3M melanoma,58.3 µM
same,TGI,MOLT-4 leukemia,> 100 µM
same,TGI,DU-145 prostate,> 100 µM
same,TGI,OVCAR-4 ovarian,> 100 µM
same,TGI,OVCAR-5 ovarian,> 100 µM
same,TGI,NCI-H460 lung,> 100 µM
same,TGI,SN12C renal,> 100 µM
CCOC(=O)C(C(=O)OCC)c1cc(-c2cc3ccccc3o2)oc(=O)c1C#N,TGI,CAKI-1 renal,38.1 µM
same,TGI,RPMI-8226 leukemia,> 100 µM
same,TGI,CCRF-CEM leukemia,> 100 µM
same,TGI,MALME-3M melanoma,55.7 µM
same,TGI,MOLT-4 leukemia,87.2 µM
same,TGI,OVCAR-4 ovarian,71.4 µM
same,TGI,OVCAR-5 ovarian,33.1 µM
same,TGI,NCI-H460 lung,> 100 µM
same,TGI,SN12C renal,62.9 µM
CCCCC/C=C\C=C\CCCCCCCCC(=O)OC,TGI,HOP-62 NSCLC,> 100 µM
same,TGI,CAKI-1 renal,> 100 µM
same,TGI,SK-OV-3 ovarian,> 100 µM
same,TGI,RPMI-8226 leukemia,> 100 µM
same,TGI,T-47D breast,> 100 µM
same,TGI,MALME-3M melanoma,> 100 µM
same,TGI,MOLT-4 leukemia,> 100 µM
same,TGI,DU-145 prostate,> 100 µM
same,TGI,OVCAR-4 ovarian,> 100 µM
same,TGI,OVCAR-5 ovarian,> 100 µM
same,TGI,NCI-H460 lung,> 100 µM
same,TGI,SN12C renal,> 100 µM
Nc1[nH]c(=O)nc2c1cnn2COCCO,TGI,CAKI-1 renal,> 100 µM
same,TGI,RPMI-8226 leukemia,> 100 µM
same,TGI,CCRF-CEM leukemia,> 100 µM
same,TGI,MALME-3M melanoma,> 100 µM
same,TGI,MOLT-4 leukemia,> 100 µM
same,TGI,OVCAR-4 ovarian,> 100 µM
same,TGI,OVCAR-5 ovarian,73.6 µM
same,TGI,NCI-H460 lung,> 100 µM
same,TGI,SN12C renal,> 100 µM
C/C(=C\[Si](C)(C)c1ccco1)C(C)(O)[C@H](C)O (some centres undefined),TGI,HOP-62 NSCLC,> 100 µM
same,TGI,CAKI-1 renal,> 100 µM
same,TGI,SK-OV-3 ovarian,> 100 µM
same,TGI,NCI-H522 lung,74.4 µM
same,TGI,RPMI-8226 leukemia,> 100 µM
same,TGI,T-47D breast,54.2 µM
same,TGI,CCRF-CEM leukemia,> 100 µM
same,TGI,MALME-3M melanoma,> 100 µM
same,TGI,MOLT-4 leukemia,> 100 µM
same,TGI,DU-145 prostate,> 100 µM
same,TGI,OVCAR-4 ovarian,12.8 µM
same,TGI,OVCAR-5 ovarian,> 100 µM
same,TGI,NCI-H460 lung,> 100 µM
same,TGI,SN12C renal,> 100 µM
